# In patent publication US11254676B2, “Pyrazole derivative compound and use thereof” (HANMI PHARM. CO., LTD., priority 2017, dated 2022):
# How the values were obtained:
# LSD1 = LSD1 (Homo sapiens (Human), UniProt O60341); test: LSD1 histone demethylase inhibition, LSD1 fluorescence analysis kit (BPS Bioscience); type: biochemical; settings: H2O2/HRP/Amplex Red fluorescence readout
# Source text: The results are expressed as an IC50 value. As for a control, GSK2879552 (available from GlaxoSmithKline USA) was used.
# NCI-H1417 cells = test: Cell growth suppression test, CellTiter-Glo Luminescent Cell Viability Assay; type: cell-based; settings: Homo sapiens, 240 h; NCI-H1417 cells treated for 10 days
# Procedure: Cell growth suppression effects of the synthesized compounds on NCI-H1417 cells were identified. The cells were treated with the synthesized compounds for 10 days. Then, in order to test the cell growth suppression, CellTiter-Glo Luminescent Cell Viability Assay (available from Promega, USA) was used. This test is to measure emission signals proportional to the number of ATPs based on a fixed amount of ATPs, which represents the presence of metabolically active cells, thereby determining the number of viable cells. The results are expressed as a GI50 value. As for a control, GSK2879552 (available from GlaxoSmithKline USA) was used.
SMILES,IC50 (LSD1),GI50 (NCI-H1417 cells)
"CN[C@@H]1CCCN(C(=O)c2cc(-c3ccc(C#N)c(F)c3)n(-c3ccc(C4CC4)cc3F)n2)C1 [Example 6, (R)-4-(1-(4-cyclopropyl-2-fluorophenyl)-3-(3-(methylamino)piperidine-1-carbonyl)-1H-pyrazole-5-yl)-2-fluorobenzonitrile]",21 nM,48 nM
"O=C(O)c1ccc(CN2CCC(CN[C@@H]3C[C@H]3c3ccccc3)CC2)cc1 [Control, GSK2879552, reference compound]",311 nM,591 nM
"CN[C@@H]1CCCN(C(=O)c2cc(-c3ccc(C#N)c(F)c3)n(-c3ccc(N4CC[C@H](OC)C4)cc3F)n2)C1 [Example 68, 2-fluoro-4-(1-(2-fluoro-4-((S)-3-methoxypyrrolidine-1-yl)phenyl)-3-((R)-3-(methylamino)piperidine-1-carbonyl)-1H-pyrazole-5-yl)benzonitrile]",,6.8 nM
"CC(C)(C)c1ccc(-n2nc(C(=O)N3CCC[C@@H](N)C3)cc2-c2ccc(C#N)cc2)cc1 [Example 40, (R)-4-(3-(3-aminopiperidine-1-carbonyl)-1-(4-(tert-butyl)phenyl)-1H-pyrazole-5-yl)benzonitrile]",,226 nM
"N#Cc1ccc(-c2cc(C(=O)N3CCC[C@@H](N)C3)nn2-c2ccc(N3CCCCC3)cc2F)cc1F [Example 78, (R)-4-(3-(3-aminopiperidine-1-carbonyl)-1-(2-fluoro-4-(piperidine-1-yl)phenyl)-1H-pyrazole-5-yl)-2-fluorobenzonitrile]",,34 nM
"CC(C)c1ccc(-n2nc(C(=O)N3CCCC[C@@H](N)C3)cc2-c2ccc(C#N)c(F)c2)c(F)c1 [Example 39, (R)-4-(3-(3-aminoazepane-1-carbonyl)-1-(2-fluoro-4-isopropylphenyl)-1H-pyrazole-5-yl)-2-fluorobenzonitrile]",,139 nM
"CC(C)c1ccc(-n2nc(C(=O)N3CCC[C@@H](N)C3)cc2-c2ccc(C#N)c(F)c2)c(F)c1 [Example 38, (R)-4-(3-(3-aminopiperidine-1-carbonyl)-1-(2-fluoro-4-isopropylphenyl)-1H-pyrazole-5-yl)-2-fluorobenzonitrile]",,79 nM
"N#Cc1ccc(-c2cc(C(=O)N3CCC[C@@H](N)C3)nn2-c2ccc(N3CCCC3)cc2F)cc1 [Example 57, (R)-4-(3-(3-aminopiperidine-1-carbonyl)-1-(2-fluoro-4-(pyrrolidine-1-yl)phenyl)-1H-pyrazole-5-yl)benzonitrile]",,45 nM
CN(C)c1ccc(-n2nc(C(=O)N3CCC[C@@H](N)C3)cc2-c2ccc(C#N)cc2)cc1 [Example 53],,102 nM
"N#Cc1ccc(-c2cc(C(=O)N3CCC[C@@H](N)C3)nn2-c2ccc3c(c2)CCC3)cc1 [Example 87, (R)-4-(3-(3-aminopiperidine-1-carbonyl)-1-(2,3-dihydro-1H-indane-5-yl)-1H-pyrazole-5-yl)benzonitrile]",,142 nM
"CO[C@@H]1CCN(c2ccc(-n3nc(C(=O)N4CCC[C@@H](N)C4)cc3-c3ccc(C#N)c(F)c3)c(F)c2)C1 [Example 69, 4-(3-((R)-3-aminopiperidine-1-carbonyl)-1-(2-fluoro-4-((R)-3-methoxypyrrolidine-1-yl)phenyl)-1H-pyrazole-5-yl)-2-fluorobenzonitrile]",,38 nM
"COC1CCN(c2ccc(-n3nc(C(=O)N4CCC[C@@H](N)C4)cc3-c3ccc(C#N)c(F)c3)c(F)c2)C1 (stereo partly drawn) [Example 65, 4-(3-((R)-3-aminopiperidine-1-carbonyl)-1-(2-fluoro-4-(3-methoxypyrrolidin-1-yl)phenyl)-1H-pyrazol-5-yl)-2-fluorobenzonitrile]",,58 nM
"CN[C@@H]1CCCN(C(=O)c2cc(-c3ccc(C#N)cc3)n(-c3ccc4c(c3)CCC4)n2)C1 [Example 89, (R)-4-(1-(2,3-dihydro-1H-inden-5-yl)-3-(3-(methylamino)piperidine-1-carbonyl)-1H-pyrazole-5-yl)benzonitrile]",,71 nM
CC(C)(C)c1ccc(-n2nc(C(=O)N3CCC[C@@H](N)C3)cc2-c2ccc(C#N)c(F)c2)c(F)c1 [Example 43],,69 nM
"CN[C@@H]1CCCN(C(=O)c2cc(-c3ccc(C#N)c(F)c3)n(-c3ccc(N4CCC(F)(F)C4)cc3F)n2)C1 [Example 64, (R)-4-(1-(4-(3,3-difluoropyrrolidine-1-yl)-2-fluorophenyl)-3-(3-(methylamino)piperidine-1-carbonyl)-1H-pyrazole-5-yl)-2-fluorobenzonitrile]",,19 nM
"CN[C@@H]1CCCN(C(=O)c2cc(-c3ccc(C#N)cc3)n(-c3ccc(C4CC4)cc3F)n2)C1 [Example 4, (R)-4-(1-(4-cyclopropyl-2-fluorophenyl)-3-(3-(methylamino)piperidine-1-carbonyl)-1H-pyrazole-5-yl)benzonitrile]",,24 nM
"N#Cc1ccc(-c2cc(C(=O)N3CCC[C@@H](N)C3)nn2-c2ccc(N3CCC(F)(F)C3)cc2F)cc1F [Example 63, (R)-4-(3-(3-aminopiperidine-1-carbonyl)-1-(4-(3,3-difluoropyrrolidine-1-yl)-2-fluorophenyl)-1H-pyrazole-5-yl)-2-fluorobenzonitrile]",,33 nM
